Legend:
TRPV1 mRNA = TRPV1 mRNA expression in DRG cells by real-time PCR; format: cell-based, rat; settings: for TRPV1 mRNA expression (2^−ΔΔCT): 37° C. 24 h
TRPM8 mRNA = TRPM8 mRNA expression in DRG cells by real-time PCR; settings: DRG cells
Method: DRG were aseptically removed and meticulously cleaned the rootlets and connective tissue. The tissue was digested with collagenase and trypsin in succession, and then centrifuged and the digestive liquid was discarded. Cells were prepared into single cell suspension in common culture medium, and then calculated and adjusted to 10^5 nerve cells per ml. It was incubated in culture plates pre-coated with laminin at 37° C. in 5% CO2 for 48 hours. Camptothecine was used to inhibit proliferation of other cells. Culture was continued to obtain DRG cells with a high purity (>98%).
Detection of TRPM8 and TRPV1 mRNA expression: The total RNA of the DRG neuronal cells was extracted in a routine way, after exposure to the tested agents of various concentrations under the normal, low and high temperature conditions respectively. The concentration of RNA was measured and its cDNA was prepared. The desired amount of resulting cDNA and TRPM8 or TRPV1 gene primers were added on the IQ5-Type real-time IQ5-Type real-time PCR meter with GAPDH as the endogenous control to perform extension. Melting curves were generated. Relative gene expression was calculated using the comparative threshold cycle (2-^ΔΔCT) method with the calculated formula as following:
ΔΔCt=(Ct,Target-Ct,GAPDH)x-(Ct,Target-Ct,GAPDH)Control
X represents any one of tested, Control represents double target gene expression after GAPDH correction.
The purified culture medium of DRG cells was added with three different concentrations of test compounds and cultured at 37° C. in 5% CO2 for 24 h. The total RNA was extracted immediately after culture. The TRPM8 agonist hexahydrothymol was positive control group and the normal culture medium was vehicle control group. Then the real-time PCR amplification was performed and TRPM8 mRNA was determined.
The purified culture medium of DRG cells was added with three different concentrations of test compounds and cultured at 37° C. in 5% CO2 for 23 h followed by 39° C. in 5% CO2 for 1 h. The total RNA was extracted immediately after culture. The TRPM8 agonist hexahydrothymol was positive control group and the normal culture medium was vehicle control group. Then the real-time PCR amplification was performed and TRPM8 mRNA was determined.
The purified culture medium of DRG cells was added with three different concentrations of test compounds and cultured at 37° C. in 5% CO2 for 22 h followed by 19° C. in 5% CO2 for 2 h. The total RNA was extracted immediately after culture. The TRPM8 agonist hexahydrothymol was positive control group and the normal culture medium was vehicle control group. Then the real-time PCR amplification was performed and TRPM8 mRNA was determined.

TRPV1 [1] = test: Intracellular calcium change in DRG cells, Fluo-4 fluorescence (Examples 4-5, Tables 4-5); format: cell-based, rat
Method: (§1) Detection of intracellular calcium concentrations of DRG cells: DRG cells cultured under normal, low and high temperature conditions was obtained. The medium was discarded and the cells were washed after certain time. 0.1%F-127, 5 μM of Fluo-4-AM, M fluorescent dye were added and loaded at 25° C. out of light for 30 min. After dye loading, the redundant dye was washed out and buffer and test compounds were added respectively. The cells were put in a closed chamber on a microscope stage. Fluorescence dyed cells were detected with appropriate conditions. The change of fluorescence intensity in each cell was determined and the data were analyzed by software. The change of the intracellular calcium concentration was indicated by fluorescence intensity. The change degree of the intracellular calcium concentration was represented by the percent ratio of the change value of fluorescence intensity before and after administration and the value of fluorescence intensity before administration (Δ[Ca2+]i), i.e. Δ[Ca2+]i=(fluorescence intensity value after administration F-fluorescence intensity value before administration F0)/fluorescence intensity value before administration F0×100%. The change of the intracellular calcium concentration indicated the function of TRP.
(§2) The medium was discarded and the fluorescent dye was added and loaded for 30 min. The change of fluorescence intensity in cell was determined in a closed chamber on a microscope stage and the change of the intracellular calcium concentration was assayed.
as §2

TRPV1 [2] = biological target: TRPV1 (Rattus norvegicus, UniProt O35433); test: Intracellular calcium change in DRG cells, Fluo-4 fluorescence (Examples 9-11, Tables 9-11); format: cell-based
Method: as §1, §2, §2
(this is the appropriate stimulation time for the intracellular calcium change after stimulation under 19° C., and the experiment data was not shown). The medium was discarded and the fluorescent dye was added and loaded for 30 min.

[3] = 37° C. 22 h then 19° C. 2 h, 37.5 μmol/L
[4] = 37° C. 22 h then 19° C. 2 h, 75 μmol/L
[5] = 37° C. 22 h then 19° C. 2 h, 150 μmol/L
[6] = 37° C. 23 h then 39° C. 1 h, 37.5 μmol/L
[7] = 37° C. 23 h then 39° C. 1 h, 75 μmol/L
[8] = 37° C. 23 h then 39° C. 1 h, 150 μmol/L

Chain of TRPV1 (Rattus norvegicus, UniProt O35433) (O35433 whole entry): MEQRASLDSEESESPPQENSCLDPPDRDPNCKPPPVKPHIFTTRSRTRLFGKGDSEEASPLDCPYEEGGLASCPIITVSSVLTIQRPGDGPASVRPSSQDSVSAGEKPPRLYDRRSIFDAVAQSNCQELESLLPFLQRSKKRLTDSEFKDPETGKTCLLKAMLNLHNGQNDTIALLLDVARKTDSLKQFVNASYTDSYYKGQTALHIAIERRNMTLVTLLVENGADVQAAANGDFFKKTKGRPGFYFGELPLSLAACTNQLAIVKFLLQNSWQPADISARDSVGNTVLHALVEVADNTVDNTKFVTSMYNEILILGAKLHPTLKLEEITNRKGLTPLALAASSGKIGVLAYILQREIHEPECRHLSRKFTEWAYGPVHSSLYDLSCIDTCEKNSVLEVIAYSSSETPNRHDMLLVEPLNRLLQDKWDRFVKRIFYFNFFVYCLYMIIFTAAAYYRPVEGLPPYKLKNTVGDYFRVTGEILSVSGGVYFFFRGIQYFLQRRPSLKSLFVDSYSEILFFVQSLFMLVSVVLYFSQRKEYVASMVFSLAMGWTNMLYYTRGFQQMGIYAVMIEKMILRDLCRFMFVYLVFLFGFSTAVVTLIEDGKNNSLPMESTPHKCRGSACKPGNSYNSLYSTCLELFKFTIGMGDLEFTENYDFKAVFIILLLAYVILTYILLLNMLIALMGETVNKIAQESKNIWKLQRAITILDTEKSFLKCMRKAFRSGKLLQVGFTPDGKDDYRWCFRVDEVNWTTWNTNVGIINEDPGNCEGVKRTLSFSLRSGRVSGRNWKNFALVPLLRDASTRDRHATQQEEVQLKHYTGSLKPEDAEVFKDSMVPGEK

SMILES: CC1CCC(C(C)C)C(O)C1 (stereo not drawn) [hexahydrothymol, reference compound]
- TRP V1 mRNA expression(2^−ΔΔCT) (TRPV1 mRNA; [3]): 0.54 ± 0.17
- TRP V1 mRNA expression(2^−ΔΔCT) (TRPV1 mRNA; [4]): 0.48 ± 0.19
- TRP V1 mRNA expression(2^−ΔΔCT) (TRPV1 mRNA; [5]): 0.47 ± 0.15
- TRP V1 mRNA expression(2^−ΔΔCT) (TRPV1 mRNA; [6]): 4.22 ± 0.49
- TRP V1 mRNA expression(2^−ΔΔCT) (TRPV1 mRNA; [7]): 4.01 ± 0.73
- TRP V1 mRNA expression(2^−ΔΔCT) (TRPV1 mRNA; [8]): 4.05 ± 0.81
- TRPV1 mRNA expression (2^−ΔΔCT) (TRPV1 mRNA; 37.5 μmol): 0.96 ± 0.21
- TRPV1 mRNA expression (2^−ΔΔCT) (TRPV1 mRNA; 75 μmol): 1.10 ± 0.28
- TRPV1 mRNA expression (2^−ΔΔCT) (TRPV1 mRNA; 150 μmol): 1.08 ± 0.31
- TRPM8 mRNA expression (2^−ΔΔCT) (TRPM8 mRNA; [3]): 3.67 ± 0.93
- TRPM8 mRNA expression (2^−ΔΔCT) (TRPM8 mRNA; [4]): 3.72 ± 1.09
- TRPM8 mRNA expression (2^−ΔΔCT) (TRPM8 mRNA; [5]): 4.07 ± 1.12
- TRPM8 mRNA expression (2^−ΔΔCT) (TRPM8 mRNA; [6]): 0.89 ± 0.25
- TRPM8 mRNA expression (2^−ΔΔCT) (TRPM8 mRNA; [7]): 0.91 ± 0.27
- TRPM8 mRNA expression (2^−ΔΔCT) (TRPM8 mRNA; [8]): 0.96 ± 0.32
- TRPM8 mRNA expression (2^−ΔΔCT) (TRPM8 mRNA; 37° C. 24 h, 37.5 μmol/L): 1.13 ± 0.22
- TRPM8 mRNA expression (2^−ΔΔCT) (TRPM8 mRNA; 37° C. 24 h, 75 μmol/L): 1.20 ± 0.28
- TRPM8 mRNA expression (2^−ΔΔCT) (TRPM8 mRNA; 37° C. 24 h, 150 μmol/L): 1.29 ± 0.31
- Intracellular Calcium changes [(F1 − F0)/F0/%] (TRPV1 [1]; Table 4, DRG cells, 37° C. 24 h, 37.5 μmol/L): 116.52 ± 10.22%
- Intracellular Calcium changes [(F1 − F0)/F0/%] (TRPV1 [1]; Table 4, DRG cells, 37° C. 24 h, 75 μmol/L): 117.46 ± 13.58%
- Intracellular Calcium changes [(F1 − F0)/F0/%] (TRPV1 [1]; Table 4, DRG cells, 37° C. 24 h, 150 μmol/L): 120.65 ± 12.19%
- Intracellular Calcium changes [(F1 − F0)/F0/%] (TRPV1 [1]; Table 5, DRG cells, 37° C. 22 h then 39° C. 2 h, 37.5 μmol/L): 107.54 ± 13.09%
- Intracellular Calcium changes [(F1 − F0)/F0/%] (TRPV1 [1]; Table 5, DRG cells, 37° C. 22 h then 39° C. 2 h, 75 μmol/L): 108.63 ± 15.17%
- Intracellular Calcium changes [(F1 − F0)/F0/%] (TRPV1 [1]; Table 5, DRG cells, 37° C. 22 h then 39° C. 2 h, 150 μmol/L): 112.92 ± 13.19 %
- Intracellular Calcium changes [(F1 − F0)/F0/%] (TRPV1 [2]; Table 9, DRG cells, 37° C. 24 h, 37.5 μmol/L): 100.14 ± 11.26%
- Intracellular Calcium changes [(F1 − F0)/F0/%] (TRPV1 [2]; Table 9, DRG cells, 37° C. 24 h, 75 μmol/L): 101.82 ± 14.89%
- Intracellular Calcium changes [(F1 − F0)/F0/%] (TRPV1 [2]; Table 9, DRG cells, 37° C. 24 h, 150 μmol/L): 98.31 ± 12.17%
- Intracellular Calcium changes [(F1 − F0)/F0/%] (TRPV1 [2]; Table 10, DRG cells, 37° C. 22 h then 39° C. 2 h, 37.5 μmol/L): 133.49 ± 15.18%
- Intracellular Calcium changes [(F1 − F0)/F0/%] (TRPV1 [2]; Table 10, DRG cells, 37° C. 22 h then 39° C. 2 h, 75 μmol/L): 132.01 ± 14.50%
- Intracellular Calcium changes [(F1 − F0)/F0/%] (TRPV1 [2]; Table 10, DRG cells, 37° C. 22 h then 39° C. 2 h, 150 μmol/L): 126.08 ± 12.48%
- Intracellular Calcium changes [(F1 − F0)/F0/%] (TRPV1 [2]; Table 11, DRG cells, 37° C. 21 h then 19° C. 3 h, 37.5 μmol/L): 96.91 ± 11.34%
- Intracellular Calcium changes [(F1 − F0)/F0/%] (TRPV1 [2]; Table 11, DRG cells, 37° C. 21 h then 19° C. 3 h, 75 μmol/L): 96.75 ± 11.08%
- Intracellular Calcium changes [(F1 − F0)/F0/%] (TRPV1 [2]; Table 11, DRG cells, 37° C. 21 h then 19° C. 3 h, 150 μmol/L): 95.48 ± 10.23%

— US20120108629A1, “New use of neferine” (Institute of Chinese Materia Medica, China Academy, priority 2009, published 2012)
